One assay has as its system IL6 and IL8. Briefly: Plasma IL6 and IL8 protein levels in RCC patients after CPI-444 treatment. The format is in vivo, human. Particulars: RCC patients with reduction in tumor size (best response); after treatment (4 weeks).
The test system of another assay is advanced cancers. The assay can be described thus: Ongoing phase 1/1b trial of CPI-444 monotherapy in patients with advanced cancers. Type of assay: in vivo, human. From the text: “Adenosine receptor antagonist” refers to a molecule that inhibits activity of adenosine receptors (e.g. A2A or A2B receptors), typically through direct action. Adenosine receptors antagonists can be small or large molecule antagonists. In embodiments, CPI-444 is an example A2A receptor antagonist. […] CPI-444 is described, for example, in PCT Patent Publication No. WO 2017/112917; each of which is incorporated herein by reference in its entirety.

Assay [1] concerns adenosine-modulated genes and proteins. The assay can be described thus: Adenosine-induced genes and proteins in tumor biopsies from treated patients. The following applies: in vitro and in vivo in tumor biopsies from treated patients. The arrangement: species or system human. The source says:
Expression of a subset of genes that are modulated by adenosine levels correlates with tumor regression in the ongoing Ph 1/1b trial with CPI-444 treatment in RCC. […] A2AR agonists induce a specific gene signature dominated by immunosuppressive mediators of MDSC and monocyte/macrophage biology. […] These genes and proteins may identify patients with high levels of adenosine and be used as biomarkers for patient selection to select patients most likely to respond to therapy with agents that antagonize adenosine production or signaling.

A further assay deals with PBMCs. Briefly: CXCL5 protein ELISA in culture supernatants of PBMCs treated with NECA +/- CPI-444. Type of assay: cell-based. Particulars: PBMCs from two human donors; NECA then CPI-444 then anti-CD3/CD28; two days after activation. The protocol: Expression of CXCL5 was determined by ELISA 2 days after activation.
FIGS. 2B and 2C show the response of PBMCs from two different donors to NECA+/−CPI-444 treatment. DMSO was used as vehicle control. […] This control helps establish that the induction of CXCL5 is specific to signaling through adenosine receptors.
NECA activation of CXCL5 protein expression was evaluated. PBMCs were harvested from two different human donors. […] CPI-444 (Corvus Pharmaceuticals) is an antagonist of the adenosine A2A receptor. CXCL5 protein in the culture supernatants was evaluated by ELISA two days after activation. CXCL5 expression is activated by NECA. […] This establishes that the induction of CXCL5 is specific to signaling through adenosine receptors.
A general note: An ELISA detects its analyte on a solid surface through an enzyme-linked reagent.

In another assay the test system is A2AR. The assay can be described thus: In vitro A2AR stimulation gene signature and its inhibition by CPI-444. The format is cell-based, human. The following applies: transcript and protein level. The protocol: RNA purified from normal, healthy human peripheral blood mononuclear cells (PBMCs) treated with 5′-N-ethylcarboxamidoadenosine (NECA) and activated with anti-CD3/CD28 antibody were analyzed by NanoString hybridization-based quantification (NanoString Technologies, Inc.). […] Each dot represents the expression level of a specific gene. Dot shade represents the concentration of NECA used and/or different PBMC donors. […] Increases in monocyte/macrophage inflammatory mediators such as IL-1b and CCL2,3,7,8, 20 were also observed, as were increases in SERPINB2, S100A8, PTGS2, THBS1. Expression of CXCL10 and GZMB were decreased, consistent with a suppressed IFNg response. […] A2AR agonists induce a specific gene signature (increase in a certain subset of genes and/or decrease in a second subset of genes) dominated by immunosuppressive mediators of MDSC and monocyte/macrophage biology. Inhibition of these genes by CPI-444 are observed. These gene signatures may be used as biomarkers for patient selection.

For the next assay, the system named is renal tumors (RCC). The assay can be described thus: Change in tumor size in renal cancer patients treated with CPI-444 (Ph 1/1b trial). Type of assay: in vivo, human. The protocol:
Methods: Tumor biopsies obtained at trial screening from patients with RCC (n=30) were analyzed for gene expression profiles with the Nanostring PanCancer Immune Panel that included 770 markers of immune activity and inflammation. The gene expression correlation (Spearman) matrix was hierarchically clustered (Ward's method) to identify modules of genes that were co-expressed across tumors. Gene expression was normalized to housekeeper genes included in the PanCancer Immune Panel. Gene cluster expression intensity was compared between patients with evaluable best change in tumor size ≤0 (n=8) vs >0 (n=15). The composite gene expression score was calculated as the average of the Log2 of expression values (normalized Nanostring counts) for seven genes (CXCL1, CXCL2, CXCL3, CXCL5, IL1B, IL8, SERPINB2) shown to be induced in vitro in normal peripheral blood mononuclear cells by adenosine. Protein expression was determined from blood (plasma) samples from baseline (untreated) renal cell carcinoma (RCC) patients using MesoScale assay.
Renal cancer patients were treated with CPI-444, and change in tumor size was measured.

“Also recorded” adds a separate entry of the source.

Regarding `Cc1ccc(-c2nc(N)nc3c2nnn3Cc2cccc(CO[C@H]3CCOC3)n2)o1` [CPI-444, (S)-7-(5-methylfuran-2-yl)-3-((6-(((tetrahydrofuran-3-yl)oxy)methyl)pyridin-2-yl)methyl)-3H-[1,2,3]triazolo[4,5-d]pyrimidin-5-amine], in the assay on IL6 and IL8, the “IL6 and IL8 levels in blood plasma after treatment” value is reported as “reduced; also recorded: decreased”. The “anti-tumor activity as a monotherapy” value in the assay on advanced cancers is recorded as “demonstrated anti-tumor activity”. The “adenosine agonist-induced genes and proteins, effect of CPI-444” value in assay [1] is “Inhibition of these genes and proteins”. For the same molecule, the “NECA-induced increase in CXCL5 protein (ELISA), effect of added CPI-444” value with PBMCs is “blocked”. Besides, in the assay on A2AR, the “A2AR stimulation-induced gene expression changes, effect of CPI-444” value was “inhibited these changes”. In addition, in the assay on renal tumors (RCC) (RCC patients, vs low levels of CD68 or CD163), the “response to CPI-444 monotherapy, patients with high CD68 or high CD163 gene levels in the tumors” value is recorded as “more likely to respond”. Moreover, in the assay on renal tumors (RCC) (ongoing Ph 1/1b trial, RCC, vs patients with low expression), the “tumor regression with CPI-444, patients with high expression of adenosine-modulated gene subset” value was “more likely to have tumor regression”. For the same molecule, the “reduction in tumor size (best overall change) after CPI-444 treatment” value in the assay on renal tumors (RCC) (patients with RCC, two subjects) is on record as “greater than 30%”. Further, in the assay with renal tumors (RCC) (renal cancer patients), the “change in tumor size after CPI-444 treatment, tumors with low composite gene expression score” value is “tumor regression was not observed”; the “response to CPI-444, patients with high CCL20 and low CX3CL1 plasma protein levels” value is “more likely to respond”. In addition, in the assay with renal tumors (RCC) (renal cancer patients, four patients), the “change in tumor size after CPI-444 treatment, tumors with high composite gene expression score” value is reported as “reduction in tumor size”.
